# From US20240000872A1, “NOVEL BACTERIOPHAGE THAT LYSES ACINETOBACTER GENUS BACTERIA HAVING RESISTANCE TO ANTIBIOTICS” (priority 2020, published 2024)
# Tested on: Acinetobacter baumannii strains
# Assay: Antibiotic susceptibility test (CLSI disk diffusion test method, read per CLSI 2016)
# Format: cell-based
# Description: Strain identification was performed using a kit such as AT 32 GN system (bioMérieux, Marcy l'Etoile, France). […] In Table 2 below, S, I, and R are the results obtained by evaluating susceptibility to the antibacterial agents, in which ‘S’ means susceptible, ‘I’ means intermediate, and ‘R’ means resistant.
# Strain identification was performed using a kit such as ATB 32 GN system (bioMédrieux, Marcy l'Etoile, France). […] In Table 6 below, S, I, and R are the results obtained by evaluating susceptibility to the antibacterial agents, in which ‘S’ means susceptible, ‘I’ means intermediate, and ‘R’ means resistant.
# Strain identification was performed using a kit such as ATB 32 GN system (bioMérieux, Marcy l'Etoile, France). […] In Table 10 below, S, I, and R are the results obtained by evaluating susceptibility to the antibacterial agents, in which ‘S’ means susceptible, T means intermediate, and ‘R’ means resistant.
structure (smiles),measurement,setting,value
"CN(C)c1ccc(O)c2c1C[C@H]1C[C@H]3[C@H](N(C)C)C(O)=C(C(N)=O)C(=O)[C@@]3(O)C(O)=C1C2=O [Minocycline, minocycline]",antibiotic susceptibility class,host strain YMC14/01/C29,S
same,antibiotic susceptibility class,host strain YMC14/01/IP122,S
same,antibiotic susceptibility class,host strain YMC14/01/L8,S
same,antibiotic susceptibility class,host strain YMC14/01/P31,S
same,antibiotic susceptibility class,host strain YMC14/01/P117,S
same,antibiotic susceptibility class,host strain YMC14/01/P224,S
same,antibiotic susceptibility class,host strain YMC14/01/P727,S
same,antibiotic susceptibility class,host strain YMC14/01/P728,S
same,antibiotic susceptibility class,host strain YMC14/01/R130,S
same,antibiotic susceptibility class,host strain YMC14/01/R160,I
same,antibiotic susceptibility class,host strain YMC14/01/R198,I
same,antibiotic susceptibility class,host strain YMC14/01/R257,I
same,antibiotic susceptibility class,host strain YMC14/01/R270,S
same,antibiotic susceptibility class,host strain YMC14/01/R324,S
same,antibiotic susceptibility class,host strain YMC14/01/R443,I
same,antibiotic susceptibility class,host strain YMC14/01/R451,R
same,antibiotic susceptibility class,host strain YMC14/01/R560,R
same,antibiotic susceptibility class,host strain YMC14/01/R617,R
same,antibiotic susceptibility class,host strain YMC14/01/R671,I
same,antibiotic susceptibility class,host strain YMC14/01/R732,S
same,antibiotic susceptibility class,host strain YMC14/01/R767,S
same,antibiotic susceptibility class,host strain YMC14/01/R904,I
same,antibiotic susceptibility class,host strain YMC14/01/R905,I
same,antibiotic susceptibility class,host strain YMC14/01/R921,S
same,antibiotic susceptibility class,host strain YMC14/01/R941,S
same,antibiotic susceptibility class,host strain YMC14/01/R958,S
same,antibiotic susceptibility class,host strain YMC14/01/R1006,S
same,antibiotic susceptibility class,host strain YMC14/01/R1199,S
same,antibiotic susceptibility class,host strain YMC14/01/R1659,S
same,antibiotic susceptibility class,host strain YMC14/01/R1722,S
same,antibiotic susceptibility class,host strain YMC14/01/R1752,S
same,antibiotic susceptibility class,host strain YMC14/01/R2429,S
same,antibiotic susceptibility class,host strain YMC14/01/R2572,S
same,antibiotic susceptibility class,host strain YMC14/01/R2855,S
same,antibiotic susceptibility class,host strain YMC14/01/R2945,S
same,antibiotic susceptibility class,host strain YMC14/01/R3007,S
same,antibiotic susceptibility class,host strain YMC14/01/R3129,S
same,antibiotic susceptibility class,host strain YMC14/01/R3317,S
same,antibiotic susceptibility class,host strain YMC14/01/R3474,S
same,antibiotic susceptibility class,host strain YMC14/01/R3574,S
same,antibiotic susceptibility class,host strain YMC14/01/U313,S
same,antibiotic susceptibility class,host strain YMC14/01/U318,I
same,antibiotic susceptibility class,host strain YMC14/02/L18,S
same,antibiotic susceptibility class,host strain YMC14/02/P47,S
same,antibiotic susceptibility class,host strain YMC14/02/R1860,S
same,antibiotic susceptibility class,host strain YMC14/02/R2417,S
same,antibiotic susceptibility class,host strain YMC14/02/R2599,S
same,antibiotic susceptibility class,host strain YMC14/02/R2668,S
same,antibiotic susceptibility class,host strain YMC14/02/R2758,S
same,antibiotic susceptibility class,host strain YMC14/02/R2781,S
same,antibiotic susceptibility class,host strain YMC14/02/R3106,S
same,antibiotic susceptibility class,host strain YMC14/02/R3419,S
same,antibiotic susceptibility class,host strain YMC14/02/U1607,S
same,antibiotic susceptibility class,host strain YMC14/03/L9,S
same,antibiotic susceptibility class,host strain YMC14/03/P471,S
same,antibiotic susceptibility class,host strain YMC14/03/R122,S
same,antibiotic susceptibility class,host strain YMC14/03/R217,S
same,antibiotic susceptibility class,host strain YMC14/03/R380,S
same,antibiotic susceptibility class,host strain YMC14/03/R618,S
same,antibiotic susceptibility class,host strain YMC14/03/R2144,S
same,antibiotic susceptibility class,host strain YMC14/03/U4616,S
same,antibiotic susceptibility class,host strain YMC14/04/R1078,S
same,antibiotic susceptibility class,host strain YMC14/04/R1080,S
same,antibiotic susceptibility S/I/R,host strain YMC14/06/R2359,S
same,susceptibility category (S/I/R),host strain YMC14/06/R2359,S
same,antibiotic susceptibility S/I/R,host strain YMC14/08/R1169,S
same,susceptibility category (S/I/R),host strain YMC14/08/R1169,S
same,antibiotic susceptibility S/I/R,host strain YMC14/08/T90,S
same,susceptibility category (S/I/R),host strain YMC14/08/T90,S
same,antibiotic susceptibility S/I/R,host strain YMC15/02/R436,R
same,susceptibility category (S/I/R),host strain YMC15/02/R436,R
same,antibiotic susceptibility S/I/R,host strain YMC15/02/T28,S
same,susceptibility category (S/I/R),host strain YMC15/02/T28,S
same,antibiotic susceptibility S/I/R,host strain YMC15/03/R1604,S
same,susceptibility category (S/I/R),host strain YMC15/03/R1604,S
same,antibiotic susceptibility S/I/R,host strain YMC15/09/R1869,S
same,susceptibility category (S/I/R),host strain YMC15/09/R1869,S
same,antibiotic susceptibility S/I/R,host strain YMC16/01/P11,S
same,susceptibility category (S/I/R),host strain YMC16/01/P11,S
same,antibiotic susceptibility S/I/R,host strain YMC16/01/R123,S
same,susceptibility category (S/I/R),host strain YMC16/01/R123,S
same,antibiotic susceptibility S/I/R,host strain YMC16/01/R198,S
same,susceptibility category (S/I/R),host strain YMC16/01/R198,S
same,antibiotic susceptibility S/I/R,host strain YMC16/01/R353,S
same,susceptibility category (S/I/R),host strain YMC16/01/R353,S
same,antibiotic susceptibility S/I/R,host strain YMC16/01/R380,S
same,susceptibility category (S/I/R),host strain YMC16/01/R380,S
same,antibiotic susceptibility S/I/R,host strain YMC16/01/R397,S
same,susceptibility category (S/I/R),host strain YMC16/01/R397,S
same,antibiotic susceptibility S/I/R,host strain YMC16/01/R405,S
same,susceptibility category (S/I/R),host strain YMC16/01/R405,S
same,antibiotic susceptibility S/I/R,host strain YMC16/03/R4461,S
same,susceptibility category (S/I/R),host strain YMC16/03/R4461,S
same,antibiotic susceptibility S/I/R,host strain YMC16/05/R2210,S
same,susceptibility category (S/I/R),host strain YMC16/05/R2210,S
same,antibiotic susceptibility S/I/R,host strain YMC16/07/R2512,S
same,susceptibility category (S/I/R),host strain YMC16/07/R2512,S
same,antibiotic susceptibility S/I/R,host strain YMC16/09/R2471,S
same,susceptibility category (S/I/R),host strain YMC16/09/R2471,S
same,antibiotic susceptibility S/I/R,host strain YMC16/10/R2537,S
same,susceptibility category (S/I/R),host strain YMC16/10/R2537,S
same,antibiotic susceptibility S/I/R,host strain YMC16/12/B11422,S
same,susceptibility category (S/I/R),host strain YMC16/12/B11422,S
same,antibiotic susceptibility S/I/R,host strain YMC16/12/B11449,S
same,susceptibility category (S/I/R),host strain YMC16/12/B11449,S
same,antibiotic susceptibility S/I/R,host strain YMC16/12/B13325,S
same,susceptibility category (S/I/R),host strain YMC16/12/B13325,S
same,antibiotic susceptibility S/I/R,host strain YMC16/12/P503,R
same,susceptibility category (S/I/R),host strain YMC16/12/P503,R
same,antibiotic susceptibility S/I/R,host strain YMC16/12/R4637,R
same,susceptibility category (S/I/R),host strain YMC16/12/R4637,R
same,antibiotic susceptibility S/I/R,host strain YMC17/01/B8053,S
same,susceptibility category (S/I/R),host strain YMC17/01/B8053,S
same,antibiotic susceptibility S/I/R,host strain YMC17/01/B10087,S
same,susceptibility category (S/I/R),host strain YMC17/01/B10087,S
same,antibiotic susceptibility S/I/R,host strain YMC17/01/B12075,S
same,susceptibility category (S/I/R),host strain YMC17/01/B12075,S
same,antibiotic susceptibility S/I/R,host strain YMC17/01/B13454,S
same,susceptibility category (S/I/R),host strain YMC17/01/B13454,S
same,antibiotic susceptibility S/I/R,host strain YMC17/01/P518,S
same,susceptibility category (S/I/R),host strain YMC17/01/P518,S
same,antibiotic susceptibility S/I/R,host strain YMC17/01/R2812,R
same,susceptibility category (S/I/R),host strain YMC17/01/R2812,R
same,susceptibility category (S/I/R),host strain YMC17/02/B14,I
same,susceptibility category (S/I/R),host strain YMC17/02/B87,I
same,antibiotic susceptibility S/I/R,host strain YMC17/02/B721,S
same,susceptibility category (S/I/R),host strain YMC17/02/B721,S
same,antibiotic susceptibility S/I/R,host strain YMC17/02/B4039,S
same,susceptibility category (S/I/R),host strain YMC17/02/B4039,S
same,antibiotic susceptibility S/I/R,host strain YMC17/02/B4520,S
same,susceptibility category (S/I/R),host strain YMC17/02/B4520,S
same,antibiotic susceptibility S/I/R,host strain YMC17/02/B4864,S
same,susceptibility category (S/I/R),host strain YMC17/02/B4864,S
same,antibiotic susceptibility S/I/R,host strain YMC17/02/B8414,S
same,susceptibility category (S/I/R),host strain YMC17/02/B8414,S
same,antibiotic susceptibility S/I/R,host strain YMC17/02/P523,S
same,susceptibility category (S/I/R),host strain YMC17/02/P523,S
same,antibiotic susceptibility S/I/R,host strain YMC17/02/R541,R
same,susceptibility category (S/I/R),host strain YMC17/02/R541,R
same,antibiotic susceptibility S/I/R,host strain YMC17/02/R2392,S
same,susceptibility category (S/I/R),host strain YMC17/02/R2392,S
same,antibiotic susceptibility S/I/R,host strain YMC17/03/B4730,S
same,susceptibility category (S/I/R),host strain YMC17/03/B4730,S
same,susceptibility category (S/I/R),host strain YMC17/03/B5000,I
same,antibiotic susceptibility S/I/R,host strain YMC17/03/P971,S
same,susceptibility category (S/I/R),host strain YMC17/03/P971,S
same,antibiotic susceptibility S/I/R,host strain YMC17/03/R348,S
same,susceptibility category (S/I/R),host strain YMC17/03/R348,S
same,antibiotic susceptibility S/I/R,host strain YMC17/03/R585,R
same,susceptibility category (S/I/R),host strain YMC17/03/R585,R
same,antibiotic susceptibility S/I/R,host strain YMC17/03/R1888,S
same,susceptibility category (S/I/R),host strain YMC17/03/R1888,S
same,antibiotic susceptibility S/I/R,host strain YMC17/03/R3279,S
same,susceptibility category (S/I/R),host strain YMC17/03/R3279,S
same,antibiotic susceptibility S/I/R,host strain YMC17/03/R4077,S
same,susceptibility category (S/I/R),host strain YMC17/03/R4077,S
same,antibiotic susceptibility S/I/R,host strain YMC17/03/R4607,R
same,susceptibility category (S/I/R),host strain YMC17/03/R4607,R
same,antibiotic susceptibility S/I/R,host strain YMC17/04/R488,S
same,susceptibility category (S/I/R),host strain YMC17/04/R488,S
same,antibiotic susceptibility S/I/R,host strain YMC17/04/R640,S
same,susceptibility category (S/I/R),host strain YMC17/04/R640,S
same,antibiotic susceptibility S/I/R,host strain YMC/17/05/R1095,S
same,susceptibility category (S/I/R),host strain YMC/17/05/R1095,S
